Assay results reported in patent US20090042987A1, “TREATMENT OF NEUROPATHIC PAIN” (priority 2007, published 2009).
“Also recorded” adds a separate entry of the source.

Experiments:
[1] = system: drug-naïve STZ-diabetic rats; assay: von Frey paw withdrawal thresholds, drug-naïve STZ-diabetic rats, Example 2; format: in vivo, rat; conditions: for Mean duration of action / Time of peak anti-allodynia post-dosing: 7th twice-daily dose; for Mean (±SEM) AUC (area under the normalized PWT versus time curve) / Mean (±SEM) Peak response (PWT) / Mean (±SEM) % MPR at peak: after 7th consecutive twice-daily dose; for Mean (±SEM) % MPR at peak: 100% MPR = full reversal of tactile allodynia
Protocol: Experimental Animals Ethical approval for this study was obtained from the Animal Experimentation Ethics Committee of The University of Queensland. Adult male Sprague-Dawley (SD) rats (222±4 g) were used for this study. Rats were housed in a temperature controlled room (21+2.0 C) with a 12/12 hour light/dark cycle. Food and water were available ad libitum. Initiation of drug administration occurred at 8-11 weeks post-STZ administration for rats in Experiment 1 (PCT-001) and at 10-12 weeks post-STZ administration for rats in Experiment 2 (PCT-007).
Test Article Tranilast was supplied by the Sponsor and stored at −4° C. until use. Gabapentin (100 mg/kg, dissolved in water for injection) was utilized as the positive control for this study.
Test Article and Vehicle Preparation Test article formulations were prepared freshly on the day of administration by weighing the appropriate amount of bulk powder and suspending it in the required volume of vehicle. Carboxymethyl cellulose ((CMC) 0.5% in water for injection) was utilized as the vehicle for this study.
Test Article Administration. […] The maximum oral gavage volume administered in this study was […]. 4.4
STZ-Diabetic Rat Model of Painful Diabetic Neuropathy. Painful diabetic neuropathy is a common long-term complication of diabetes in humans that develops as a result of a sustained biochemical nerve injury. […] Following the induction of diabetes with intravenous STZ at 70-80 mg/kg, it generally takes 6-8 wks for tactile allodynia, the defining symptom of PDN, to fully develop in both rat hindpaws.
Induction of STZ-Diabetes in Rats. On day 0, rats were anaesthetized with 3% isoflurane:97% O2 and a short polyethylene cannula (0.5 mm ID, 0.8 mm OD) was inserted into the jugular vein to facilitate the intravenous (i.v.) administration of a single dose of streptozotocin (STZ: 70-80 mg/kg). After STZ injection, the cannula was removed and the jugular vein was tied off and the wound was closed. Rats received subcutaneous benzylpenicillin (60 mg) prior to surgery to prevent infection and were kept warm during surgical recovery. Rats were housed singly prior to further experimentation and were monitored daily from the time of STZ administration with regard to general health and well-being.
Von Frey Assessment of Paw Withdrawal Thresholds. Calibrated von Frey filaments were used to determine the lowest mechanical threshold required to evoke a brisk paw withdrawal reflex in the rat hindpaws. Briefly, rats were transferred individually to wire mesh testing cages (20 cm×20 cm×20 cm) and allowed to acclimatize for approximately 10-20 min prior to von Frey testing. Commencing with the von Frey filament that produced the 6 g force, the filament was applied to the plantar surface of the hindpaw until the filament buckled slightly. Absence of a response after 3 s prompted use of the next filament of increasing weight. A withdrawal response within 3 s prompted use of the next filament of decreasing weight. Filaments used produced buckling weights of 2, 4, 6, 8, 10, 12, 14, 16, 18 and 20 g. […] Tactile allodynia is regarded as being fully developed when von Frey PWTs in the injured hindpaws are <6 g.
Restoring von-Frey PWTs in the hindpaws from <6 g to pre-STZ surgery levels (12±2 g) is the treatment goal representing full reversal of tactile allodynia. If drug treatment increases PWTs above pre-surgical baseline values (i.e. >12±2 g), such a response is classified as antinociception. Before administration of STZ, baseline von Frey measurements were assessed. Following STZ administration, baseline PWTs were assessed in the hindpaws at week 8-11 to confirm the development of diabetes-induced tactile allodynia.
Dose-Response Curve for Tranilast in Drug-Naive STZ-Diabetic Rats. […]

STZ-diabetic rats = assay: Behavioural observations / adverse effects in STZ-diabetic rats; format: in vivo, rat; conditions: tranilast 30-400 mg/kg oral, 7 consecutive twice-daily bolus doses
Description: Behavioural Observations. STZ-diabetic rats were monitored for visible and audible signs of distress throughout the testing period. The visible signs of distress included behavioural changes such as complete immobility, movement with abnormal gait, agitation, aggression, wet dog shakes, excessive grooming, restlessness with constant movement, repeated sudden movements or staring.

[2] = tranilast 100, 200, 300 and 400 mg/kg oral, 7 consecutive twice-daily doses

With COc1ccc(/C=C/C(=O)Nc2ccccc2C(=O)O)cc1OC [Tranilast, 2-[[3-(3,4-dimethoxyphenyl)-1-oxo-2-propenyl]amino]benzoic acid] the “Mean (±SEM) von Frey Paw Withdrawal threshold following the 7th consecutive dose” value ([1]; tranilast 300 mg/kg oral twice-daily, time 0.75 h) was 11 ± 1.6 g, the “Mean (±SEM) von Frey Paw Withdrawal threshold following the 7th consecutive dose” value ([1]; tranilast 300 mg/kg oral twice-daily, time 1 h) was 12.2 ± 1.3 g and the “Mean (±SEM) von Frey Paw Withdrawal threshold following the 7th consecutive dose” value ([1]; tranilast 300 mg/kg oral twice-daily, time 1.25 h) was 13 ± 1.3 g. The “Mean (±SEM) von Frey Paw Withdrawal threshold following the 7th consecutive dose” value ([1]; tranilast 300 mg/kg oral twice-daily, time 1.25 h, listed as tranilast) was 13.0 (±1.3) g, the “Mean (±SEM) von Frey Paw Withdrawal threshold following the 7th consecutive dose” value ([1]; tranilast 300 mg/kg oral twice-daily, time 1.5 h) was 12.4 ± 1.1 g and the “Mean (±SEM) von Frey Paw Withdrawal threshold following the 7th consecutive dose” value ([1]; tranilast 300 mg/kg oral twice-daily, time 2 h) was 12.0 ± 2.2 g. The “Mean (±SEM) von Frey Paw Withdrawal threshold following the 7th consecutive dose” value ([1]; tranilast 300 mg/kg oral twice-daily, time 3 h) was 9.0 ± 2.7 g, the “Relief of tactile allodynia in the hindpaws” value ([1]; tranilast 300 mg/kg oral, 7 consecutive twice-daily doses (n=5)) was “significant relief of tactile allodynia” and the “AUC of anti-allodynic response versus time compared with vehicle” value ([1]; tranilast 300 mg/kg oral, 7th consecutive twice-daily dose) was “significantly greater (p<0.05)”. The “Mean duration of action” value ([1]; tranilast 300 mg/kg oral) was greater than 3 h, the “Time of peak anti-allodynia post-dosing” value ([1]; tranilast 300 mg/kg oral) was 1 to 1.5 h and the “Mean (±SEM) AUC (area under the normalized PWT versus time curve)” value ([1]; tranilast 300 mg/kg oral) was 17.2 ± 3.3. The “Mean (±SEM) Peak response (PWT)” value ([1]; tranilast 300 mg/kg oral) was 13.0 ± 1.3, the “Mean (±SEM) % MPR at peak” value ([1]; tranilast 300 mg/kg oral) was 147.8 ± 23.6% and the “Mean (±SEM) von Frey Paw Withdrawal threshold assessed prior to dose” value ([1]; tranilast 400 mg/kg oral twice-daily, prior to dose 1) was 5.1 ± 0.5 g. The “Mean (±SEM) von Frey Paw Withdrawal threshold assessed prior to dose” value ([1]; tranilast 400 mg/kg oral twice-daily, prior to dose 3) was 5.1 ± 0.5 g, the “Mean (±SEM) von Frey Paw Withdrawal threshold assessed prior to dose” value ([1]; tranilast 400 mg/kg oral twice-daily, prior to dose 5) was 4.8 ± 0.5 g and the “Mean (±SEM) von Frey Paw Withdrawal threshold assessed prior to dose” value ([1]; tranilast 400 mg/kg oral twice-daily, prior to dose 7) was 5.2 ± 0.5 g. The “Mean (±SEM) von Frey Paw Withdrawal threshold following the 7th consecutive dose” value ([1]; tranilast 400 mg/kg oral twice-daily, time 0 h (pre-dose)) was 5.2 ± 0.4 g, the “Mean (±SEM) von Frey Paw Withdrawal threshold following the 7th consecutive dose” value ([1]; tranilast 400 mg/kg oral twice-daily, time 0 h (pre-dose), listed as tranilast) was 5.2 (±0.4) g and the “Mean (±SEM) von Frey Paw Withdrawal threshold following the 7th consecutive dose” value ([1]; tranilast 400 mg/kg oral twice-daily, time 0.15 h) was 6.0 ± 0 g. The “Mean (±SEM) von Frey Paw Withdrawal threshold following the 7th consecutive dose” value ([1]; tranilast 400 mg/kg oral twice-daily, time 0.5 h) was 6.25 ± 0.2 g, the “Mean (±SEM) von Frey Paw Withdrawal threshold following the 7th consecutive dose” value ([1]; tranilast 400 mg/kg oral twice-daily, time 0.75 h) was 7.5 ± 0.5 g and the “Mean (±SEM) von Frey Paw Withdrawal threshold following the 7th consecutive dose” value ([1]; tranilast 400 mg/kg oral twice-daily, time 1 h) was 8.75 ± 0.25 g. For the same compound, the “Mean (±SEM) von Frey Paw Withdrawal threshold following the 7th consecutive dose” value ([1]; tranilast 400 mg/kg oral twice-daily, time 1 h, listed as tranilast) was 8.8 (±0.3) g, the “Mean (±SEM) von Frey Paw Withdrawal threshold following the 7th consecutive dose” value ([1]; tranilast 400 mg/kg oral twice-daily, time 1.25 h) was 7.8 ± 0.25 g and the “Mean (±SEM) von Frey Paw Withdrawal threshold following the 7th consecutive dose” value ([1]; tranilast 400 mg/kg oral twice-daily, time 1.5 h) was 8.0 ± 0 g. For the same compound, the “Mean (±SEM) von Frey Paw Withdrawal threshold following the 7th consecutive dose” value ([1]; tranilast 400 mg/kg oral twice-daily, time 2 h) was 7.8 ± 0.25 g, the “Mean (±SEM) von Frey Paw Withdrawal threshold following the 7th consecutive dose” value ([1]; tranilast 400 mg/kg oral twice-daily, time 3 h) was 6.5 ± 0.3 g and the “Mean duration of action” value ([1]; tranilast 400 mg/kg oral) was 3 h. The “Time of peak anti-allodynia post-dosing” value ([1]; tranilast 400 mg/kg oral) was 0.75 to 1.25 h, the “Mean (±SEM) AUC (area under the normalized PWT versus time curve)” value ([1]; tranilast 400 mg/kg oral) was 6.3 ± 0.9 and the “Mean (±SEM) Peak response (PWT)” value ([1]; tranilast 400 mg/kg oral) was 8.75 ± 0.25. For the same compound, the “Mean (±SEM) % MPR at peak” value ([1]; tranilast 400 mg/kg oral) was 62.2 ± 4.2%, the “Peak anti-allodynic response compared with vehicle” value [1, 2] was “significantly (p<0.05) greater” and the “Relief of tactile allodynia in the hindpaws” value [1, 2] was “significant relief of tactile allodynia; also recorded: anti-allodynia was produced”. The “% MPR at the time of peak effect compared with vehicle” value ([1]; tranilast 100, 200, 300 and 400 mg/kg oral, 7th consecutive twice-daily dose) was “significantly greater than that for vehicle”, the “AUC of anti-allodynic response versus time compared with vehicle” value ([1]; tranilast 100, 200 and 400 mg/kg oral, 7th consecutive twice-daily dose) was “did not reach statistical significance” and the “Dosing regimen producing the maximum anti-allodynic effect” value ([1]; tranilast 100-400 mg/kg oral, 7 consecutive twice-daily doses) was “maximum anti-allodynic effect appeared to be produced by the 300 mg/kg dosing regimen”. For the same compound, the “Baseline PWT thresholds assessed prior to dose 1, 3, 5 and 7” value ([1]; tranilast at all doses (100-400 mg/kg oral twice-daily)) was “not significantly different” and the “Adverse (behavioural) effects” value (STZ-diabetic rats) was “no discernible adverse effects; also recorded: did not produce discernible adverse behavioural effects”.
